Measured values: patent US9186344B2, “Glycogen or polysaccharide storage disease treatment method” (Baylor Research Institute, priority 2004, dated 2015)

Key:
[1] = tested on: Adult-Onset Glycogen Storage Disease II (Pompe's) patient; assay: Plasma amino acids during initiation of anaplerotic therapy (C7 diet), Example 1 patient; type: in vivo, human; conditions: for Plasma ASPARTATE: normal (0-10); for Plasma CITRULLINE: normal (11-51); for Plasma ARGININE: normal (20-122); for Plasma TRYPTOPHAN: normal (23-86); for Plasma TYROSINE: normal (30-100); for Plasma PHENYLALANINE: normal (35-83); for Plasma ORNITHINE: normal (36-118); for Plasma ISOLEUCINE: normal (39-119); for Plasma LEUCINE: normal (60-204); for Plasma VALINE: normal (108-295); for Plasma ALANINE: normal (162-572); for Plasma GLUTAMINE: normal (424-720); for Plasma Total Amino Acids: normal (1540-4415)
Excerpt: Clinical and Biochemical Course on Therapy. […] Esophageal dysmotility was documented. A percutaneous endoscopic gastrostomy (PEG) was placed on the sixth hospital day.
The diet was based on vivonex and ˜1500 Kcal was given by nasogastric tube, on admission. […] Total caloric intake was raised from ˜1500 to 1700 to 1900 per day with these dietary changes during […] 33 day admission.
The levels of Alanine and Glutamine were low compared to the adult normal ranges. While the levels of the branched-chain amino acids (BCAA=Leucine, Valine, & Isoleucine) were within the adult normal ranges. The reduced levels of Alanine and Glutamine have been observed often in this disease and has led to the high protein—low carbohydrate diet and/or alanine supplementation. […] Glutamine increased nearly 2-fold as did the branched chain amino acids (BCAAs). The levels of these amino acids remained in the normal range while receiving the C7 diet. However, the diet was interrupted on day 4 & 5 while awaiting placement of the PEG for gastrostomy feeding. The levels of each of these amino acids promptly fell to admission levels (Table 2: 65 & 84 hour samples). With resumption of the diet via gastrostomy, all levels returned to (or above) the normal ranges in 24 hours. These amino acid levels remained normal on this odd-carbon triglyceride diet therapy.

GSDII patient = assay: Clinical course on triheptanoin diet, Example 2 patient; type: in vivo, human
Excerpt: Clinical Course. Following informed consent, the patient agreed to enter an approved IRB Protocol for dietary therapy with triheptanoin oil. […] Maximal inspiratory and expiratory pressures were 60 cm of water. […] And pO2=62.
The oral diet consisted of 2900 Kcal on admission. […] Total caloric intake was maintained at ˜2800 per day during his 30 day admission.
Initially, the patient required assistance and supervision with grooming, upper and lower extremity dressing, bathing, and toileting. The patient also required maximal assistance with ambulation and transfers from bed to wheelchair. […] They continued to require supervision, but without assistance, with transfers from bed to wheelchair and to toilet and shower. They had clearly made improvements in strength and endurance with exercise.

[2] = tested on: polysaccharide storage myopathy (PSSM); assay: Treatment of horses with polysaccharide storage myopathy with triheptanoin diet; type: in vivo, horse
Description: Treatment of Horses. […] The first was an 8 year old mare who was unable to walk or exercise without severe muscle pain, rhabdomyolysis, and “locking up.” The owners were approaching “putting the animal down” (killing it). […] A second horse was encountered at 4 months with proven polysaccharide storage myopathy (PSSM) that was not able to walk adequately or nurse from its mother. The owners were prepared to kill the animal but decided to try the triheptanoin diet first. […] A third horse, also an 8 year old mare, developed PSSM and “locked up.” She was no longer available to ride and could no longer jump.

[3] = thirteen hours after initiating the C7 diet

For CCCCCCC(=O)OCC(COC(=O)CCCCCC)OC(=O)CCCCCC [C7, triheptanoin], the “Plasma ASPARTATE” value ([1]; 13 hrs, C7 = 1.0 gm/Kg) was 44 µM, the “Plasma CITRULLINE” value ([1]; 13 hrs, C7 = 1.0 gm/Kg) was 1 µM and the “Plasma ARGININE” value ([1]; 13 hrs, C7 = 1.0 gm/Kg) was 96 µM. The “Plasma TRYPTOPHAN” value ([1]; 13 hrs, C7 = 1.0 gm/Kg) was 121 µM, the “Plasma TYROSINE” value ([1]; 13 hrs, C7 = 1.0 gm/Kg) was 110 µM and the “Plasma PHENYLALANINE” value ([1]; 13 hrs, C7 = 1.0 gm/Kg) was 101 µM. For the same molecule, the “Plasma ORNITHINE” value ([1]; 13 hrs, C7 = 1.0 gm/Kg) was 78 µM, the “Plasma ISOLEUCINE” value ([1]; 13 hrs, C7 = 1.0 gm/Kg) was 81 uM/L and the “Plasma LEUCINE” value ([1]; 13 hrs, C7 = 1.0 gm/Kg) was 154 uM/L. For the same molecule, the “Plasma VALINE” value ([1]; 13 hrs, C7 = 1.0 gm/Kg) was 333 uM/L, the “Plasma ALANINE” value ([1]; 13 hrs, C7 = 1.0 gm/Kg) was 551 uM/L and the “Plasma GLUTAMINE” value ([1]; 13 hrs, C7 = 1.0 gm/Kg) was 827 uM/L. For the same molecule, the “Plasma Total Amino Acids” value ([1]; 13 hrs, C7 = 1.0 gm/Kg) was 3673 µM, the “Plasma ASPARTATE” value ([1]; 41 hrs, C7 = 1.0 gm/Kg) was 112 µM and the “Plasma CITRULLINE” value ([1]; 41 hrs, C7 = 1.0 gm/Kg) was 43 µM. The “Plasma ARGININE” value ([1]; 41 hrs, C7 = 1.0 gm/Kg) was 93 µM, the “Plasma TRYPTOPHAN” value ([1]; 41 hrs, C7 = 1.0 gm/Kg) was 43 µM and the “Plasma TYROSINE” value ([1]; 41 hrs, C7 = 1.0 gm/Kg) was 62 µM. For the same molecule, the “Plasma PHENYLALANINE” value ([1]; 41 hrs, C7 = 1.0 gm/Kg) was 156 µM, the “Plasma ORNITHINE” value ([1]; 41 hrs, C7 = 1.0 gm/Kg) was 163 µM and the “Plasma ISOLEUCINE” value ([1]; 41 hrs, C7 = 1.0 gm/Kg) was 138 uM/L. The “Plasma LEUCINE” value ([1]; 41 hrs, C7 = 1.0 gm/Kg) was 266 uM/L, the “Plasma VALINE” value ([1]; 41 hrs, C7 = 1.0 gm/Kg) was 384 uM/L and the “Plasma ALANINE” value ([1]; 41 hrs, C7 = 1.0 gm/Kg) was 450 uM/L. The “Plasma GLUTAMINE” value ([1]; 41 hrs, C7 = 1.0 gm/Kg) was 424 uM/L, the “Plasma Total Amino Acids” value ([1]; 41 hrs, C7 = 1.0 gm/Kg) was 4160 µM and the “Plasma ASPARTATE” value ([1]; 108 hrs, C7 = 1.5 gm/Kg) was 50 µM. The “Plasma CITRULLINE” value ([1]; 108 hrs, C7 = 1.5 gm/Kg) was 35 µM, the “Plasma ARGININE” value ([1]; 108 hrs, C7 = 1.5 gm/Kg) was 102 µM and the “Plasma TRYPTOPHAN” value ([1]; 108 hrs, C7 = 1.5 gm/Kg) was 40 µM. The “Plasma TYROSINE” value ([1]; 108 hrs, C7 = 1.5 gm/Kg) was 56 µM, the “Plasma PHENYLALANINE” value ([1]; 108 hrs, C7 = 1.5 gm/Kg) was 90 µM and the “Plasma ORNITHINE” value ([1]; 108 hrs, C7 = 1.5 gm/Kg) was 122 µM. For the same molecule, the “Plasma ISOLEUCINE” value ([1]; 108 hrs, C7 = 1.5 gm/Kg) was 144 uM/L, the “Plasma LEUCINE” value ([1]; 108 hrs, C7 = 1.5 gm/Kg) was 238 uM/L and the “Plasma VALINE” value ([1]; 108 hrs, C7 = 1.5 gm/Kg) was 304 uM/L. The “Plasma ALANINE” value ([1]; 108 hrs, C7 = 1.5 gm/Kg) was 307 uM/L, the “Plasma GLUTAMINE” value ([1]; 108 hrs, C7 = 1.5 gm/Kg) was 584 uM/L and the “Plasma Total Amino Acids” value ([1]; 108 hrs, C7 = 1.5 gm/Kg) was 3568 µM. For the same molecule, the “Plasma ASPARTATE” value ([1]; 132 hrs, C7 = 1.5 gm/Kg) was 42 µM, the “Plasma CITRULLINE” value ([1]; 132 hrs, C7 = 1.5 gm/Kg) was 25 µM and the “Plasma ARGININE” value ([1]; 132 hrs, C7 = 1.5 gm/Kg) was 97 µM. The “Plasma TRYPTOPHAN” value ([1]; 132 hrs, C7 = 1.5 gm/Kg) was 40 µM, the “Plasma TYROSINE” value ([1]; 132 hrs, C7 = 1.5 gm/Kg) was 46 µM and the “Plasma PHENYLALANINE” value ([1]; 132 hrs, C7 = 1.5 gm/Kg) was 84 µM. For the same molecule, the “Plasma ORNITHINE” value ([1]; 132 hrs, C7 = 1.5 gm/Kg) was 95 µM, the “Plasma ISOLEUCINE” value ([1]; 132 hrs, C7 = 1.5 gm/Kg) was 128 uM/L and the “Plasma LEUCINE” value ([1]; 132 hrs, C7 = 1.5 gm/Kg) was 220 uM/L. For the same molecule, the “Plasma VALINE” value ([1]; 132 hrs, C7 = 1.5 gm/Kg) was 269 uM/L, the “Plasma ALANINE” value ([1]; 132 hrs, C7 = 1.5 gm/Kg) was 277 uM/L and the “Plasma GLUTAMINE” value ([1]; 132 hrs, C7 = 1.5 gm/Kg) was 519 uM/L. The “Plasma Total Amino Acids” value ([1]; 132 hrs, C7 = 1.5 gm/Kg) was 3296 µM, the “time to restoration of Alanine and Glutamine deficits” value ([1]; FIG. 5, Triheptanoin diet only) was at most 13 h and the “time for amino acid levels to return to (or above) normal ranges” value ([1]; after resumption of the diet via gastrostomy) was at most 24 h. For the same molecule, the “increase of plasma Glutamine” value [1, 3] was about 2 fold, the “increase of plasma branched chain amino acids (BCAAs)” value [1, 3] was about 2 fold and the “increase of plasma alanine level” value ([1]; thirteen hours after initiating the C7 diet by nasogastric tube) was 4 fold. The “increase in total vital capacity” value (GSDII patient; at discharge compared to admission, diet plus physical therapy) was 700 mL, the “functional status at discharge” value (GSDII patient; intensive physical therapy and diet, 30 day admission) was “independent with grooming, upper and lower extremity dressing, toileting, and locomotion with a manual wheelchair” and the “time to become asymptomatic” value ([2]; first horse, 8 year old mare, triheptanoin in feed pellets) was at most 30 days. The “blood enzyme levels related to muscle disease (including serum creatine phosphokinase)” value ([2]; second horse, 4 month foal) was “had normalized”, the “time to running and playing without muscle pain” value ([2]; second horse, 4 month foal) was at most 24 h and the “symptoms after adjustment of the dose for weight gain” value ([2]; second horse, dose back to 2 grams/Kg body weight) was “eliminated all symptoms”. The clinical status ([2]; third horse, 8 year old mare, 1.0 gm/Kg/day, one week of diet treatment) was “asymptomatic with normal blood chemistry levels”.
